From publication PMC7068705 (2019)

Columns and labels:
[1] = system: SpinachSA (RNA, aptamer) GGGGACGCGACUGAAUGAAAUGGUGAAGGACGGGUCCAGGUGUGGCUGCUUCGGCAGUGCAGCUUGUUGAGUAGAGUGUGAGCUCCGUAACUAGUCGCGUCUUUUUUUUUUUUUUUUUUCGAUCGAUACCGACCAGAAUCAUGCAAGUGCGUAAGAUAGUCGCGGGCCGGGAUCGAUCG; experiment: fluorogen fluorescence on RNA array, in situ during transcription; conditions: 1X MEGAscript T7 transcription buffer, 37 °C, 90 min; 152 µM DFHBI; immobilised RNA
[2] = system: MGSA (RNA, aptamer) GGAUCCCGACUGGCGAGAGCCAGGUAACGAAUGGAUCCACACACACACACACACACACGCAUGCAUACCGACCAGAAUCAUGCAAGUGCGUAAGAUAGUCGCGGGCCGGGAUGCAUGC; experiment: fluorogen fluorescence on RNA array; conditions: 20 mM NaCl, 6 mM MgCl2; 40 mM Tris-HCl pH 7.8, room temperature, 2 h; 40 µM malachite green; immobilised RNA

SMILES | binding [1] | binding [2]
CC1=N/C(=C\c2cc(F)c(O)c(F)c2)C(=O)N1C | yes | 
CN(C)c1ccc(C(=C2C=CC(=[N+](C)C)C=C2)c2ccccc2)cc1 |  | yes
